≈ marks a conversion by molar mass, not a printed value. Like-named read-outs stand apart in the source and are kept apart here. Some results are limits rather than exact numbers.

These results are taken from patent publication US12297179B2, “Crystalline and salt forms of an organic compound and pharmaceutical compositions thereof” (Servier Pharmaceuticals LLC, priority 2018, dated 2025).

Common to all, as to assay type: physicochemical
Data set [1] is described as follows: Thermodynamic stability study: slurry competition among free acid Form A/B/C/D. To be noted: 50° C. and 70° C. On the procedure: To investigate and compare the thermodynamic stability among the identified four crystalline forms of Compound 1 (free acid Form A/B/C/D), two stages of slurry competition experiments were conducted, of which the first one was to study the anhydrous solvent systems and the second stage was solvent systems with different water activities (aw).
In the first stage, ˜2 mg of each solid form (free acid Form A/B/C/D) was physically mixed first, followed by addition of 0.5 mL solvent to form suspension. At various slurrying conditions, a small amount of solid was isolated after ˜7 days for XRPD test.
To further explore any impact of water content on the conversion relationship, six conditions with different water activities and temperatures were applied. Approximately 2 mg of each solid form (free acid Form A/B/C/D) was mixed and suspended in 1.0 mL corresponding solvent systems. After slurry for ˜1 month, the solids were isolated for XRPD test.

The nature of data set [2]: Hygroscopicity by dynamic vapor sorption (DVS). To be noted: DVS, humidity varied from 0% RH to 80% RH at 25° C.; listed as freeform Type D. On the procedure: DVS was measured via a SMS (Surface Measurement Systems) DVS Intrinsic. The relative humidity at 25° C. was calibrated against deliquescence point of LiCl, Mg(NO3)2 and KCl.
The nature of data set [3]: Kinetic solubility in bio-relevant media (SGF/FaSSGF, FaSSIF, FeSSIF) and H2O at 37° C., with pH of supernatant. To be noted: for Solubility: 37° C.; for pH: supernatant. Here is the method: Weigh 100 mg of sodium chloride into a 50-mL volumetric flask. Add appropriate volume of purified water and sonicate until all solids are completely dissolved. Add sufficient purified water closely to the target volume and adjust to pH 1.6. Weigh 3 mg of FaSSIF/FeSSIF/FaSSGF powder into the volumetric flask and sonicate until the powder is completely dissolved. Dilute to target volume with purified water and mix well.
Weigh 0.170 g of monobasic sodium phosphate, 0.021 g of sodium hydroxide and 0.31 g of sodium chloride into a 50-mL volumetric flask. Add appropriate volume of purified water and sonicate until all solids are completely dissolved. Add sufficient purified water closely to the target volume and adjust to pH 6.5. Weigh 110 mg of FaSSIF/FeSSIF/FaSSGF powder into the volumetric flask and sonicate until the powder is completely dissolved. Dilute to target volume with purified water and mix well.
Weigh 0.41 mL of glacial acetic acid, 0.202 g of sodium hydroxide and 0.594 g of sodium chloride into a 50-mL volumetric flask. Add appropriate volume of purified water and sonicate until all solids are completely dissolved. Add sufficient purified water closely to the target volume and adjust to pH 5.0. Weigh 560 mg of FaSSIF/FeSSIF/FaSSGF powder into the volumetric flask and sonicate until the powder is completely dissolved. Dilute to target volume with purified water and mix well.
An Agilent 1260 HPLC with DAD detector was utilized and detailed chromatographic conditions for solubility analysis are listed in Table 5.
Kinetic solubility of Tris salt Form A and free acid Form D were measured in three bio-relevant media (SGF, FaSSIF and FeSSIF) at 37° C. In details, ˜30 mg solids were suspended into 4.0 mL of each medium initially and equilibrated via shaking (500 rpm) at 37° C. Approximately 0.8 mL suspension was extracted at each time point of 15/30/60/120 mins and 24 hrs. The supernatant and precipitate were separated by centrifugation (10000 rpm, ˜3 mins) followed by concentration (HPLC) and pH measurement for supernatant and the corresponding solid forms were characterized by XRPD.
Due to the thermodynamic stability of Tris salt Form C, further evaluation was conducted, including kinetic solubility in three bio-relevant media (FaSSGF/FaSSF/FeSSIF) and H2O at 37° C.

[4] abbreviates: anhydrous solvent systems, slurry at RT, ~7 days.
Setting [5] is: solvent mixtures with different water activities (aw: 0~1), RT, ~1 month.

`Cc1ccccc1-c1ccc(-c2cc(C(=O)O)c3c(c2)nnn3C)cc1` [free acid Form C]: the “form after slurry competition (XRPD), thermodynamic stability” value (“form after slurry competition (XRPD)” for short) in data set [1] (setting [4]) and in data set [1] (setting [5]) was “converted to Form D” each time.
Molecule `Cc1ccccc1-c1ccc(-c2cc(C(=O)O)c3c(c2)nnn3C)cc1` [free acid Form D] came in with a moisture uptake in data set [2] of about 5 wt %. In addition, the Solubility (as a rule, the dissolved amount per volume that the medium holds) was 3 to 8 µg/mL (≈ 8.74 to 23.3 µM) in data set [3] (FaSSIF and FeSSIF, 37 °C, fassgf or other biorelevant, thermodynamic from solid, in FaSSIF and FeSSIF, read-out: solubility); 3.8 µg/mL (≈ 11.1 µM) in data set [3] (FaSSIF, 15 mins); 4.3 µg/mL (≈ 12.5 µM) in data set [3] (FaSSIF, 30 mins); 4.8 µg/mL (≈ 14 µM) in data set [3] (FaSSIF, 60 mins); 5.0 µg/mL (≈ 14.6 µM) in data set [3] (FaSSIF, 120 mins); 4.8 µg/mL (≈ 14 µM) in data set [3] (FaSSIF, 24 hrs). Moreover, the Solubility is 5.6 µg/mL (≈ 16.3 µM) in data set [3] (FeSSIF, 15 mins); 7.3 µg/mL (≈ 21.3 µM) in data set [3] (FeSSIF, 30 mins); 5.9 µg/mL (≈ 17.2 µM) in data set [3] (FeSSIF, 60 mins); 7.7 µg/mL (≈ 22.4 µM) in data set [3] (FeSSIF, 120 mins); 6.4 µg/mL (≈ 18.6 µM) in data set [3] (FeSSIF, 24 hrs); 0.11 µg/mL (≈ 0.32 µM) in data set [3] (SGF, 30 mins). For the same molecule, the Solubility in data set [3] (SGF, 60 mins) was 0.14 µg/mL (≈ 0.408 µM); in data set [3] (SGF, 24 hrs) it was 0.18 µg/mL (≈ 0.524 µM); in data set [3] (SGF, 37 °C, pH 1.6, fassgf or other biorelevant, thermodynamic from solid, in SGF, read-out: solubility) it was under 1 µg/mL. The solubility (as a rule, the dissolved amount per volume that the medium holds) at 120 min in data set [3] (SGF, 37 °C, pH 1.6, fassgf or other biorelevant, thermodynamic from solid, 120 mins) was determined as 0.13 µg/mL (≈ 0.379 µM). Besides, the pH is on record as 6.4 in data set [3] (FaSSIF (blank pH 6.5), 15 mins); 6.5 in data set [3] (FaSSIF (blank pH 6.5), 30 mins); 6.5 in data set [3] (FaSSIF (blank pH 6.5), 60 mins); 6.5 in data set [3] (FaSSIF (blank pH 6.5), 120 mins); 6.4 in data set [3] (FaSSIF (blank pH 6.5), 24 hrs); 5.0 in data set [3] (FeSSIF (blank pH 5.0), 15 mins). Also, the pH in data set [3] (FeSSIF (blank pH 5.0), 30 mins) is 5.0; in data set [3] (FeSSIF (blank pH 5.0), 60 mins), 5.0; in data set [3] (FeSSIF (blank pH 5.0), 120 mins), 5.0; in data set [3] (FeSSIF (blank pH 5.0), 24 hrs) it was 5.0; in data set [3] (SGF (blank pH 1.8), 15 mins), 2.0; in data set [3] (SGF (blank pH 1.8), 30 mins) it was 2.1. Moreover, the pH in data set [3] (SGF (blank pH 1.8), 60 mins) was determined as 2.1; in data set [3] (SGF (blank pH 1.8), 120 mins) it was 2.1; in data set [3] (SGF (blank pH 1.8), 24 hrs), 2.2. For the same molecule, the “form after slurry competition (XRPD)” value in data set [1] (setting [4]) and in data set [1] (setting [5]) was “more stable than Form A/B/C” each time.
As for `Cc1ccccc1-c1ccc(-c2cc(C(=O)O)c3c(c2)nnn3C)cc1` [free acid Form B], the “form after slurry competition (XRPD)” value in data set [1] (setting [4]) and in data set [1] (setting [5]) was “converted to Form D” in each case.
`Cc1ccccc1-c1ccc(-c2cc(C(=O)O)c3c(c2)nnn3C)cc1` [free acid Form A]: the “form after slurry competition (XRPD)” value in data set [1] (setting [4]) and in data set [1] (setting [5]) was “converted to Form D” each time.
